Assay results published in publication PMC7402526, “An in vitro quantitative systems pharmacology approach for deconvolving mechanisms of drug-induced, multilineage cytopenias” (PLoS Computational Biology, 2020).

Columns and labels:
Format in all cases: cell-based, human
[1] = system: granulocyte-macrophage progenitor (GMPs); test: MLTA, GMPs: concentration-response and QSP model fit; conditions: Homo sapiens; QSP model parameter, sheet EC50_parameters; GMPs
Experimental: (§1) A custom optimized cytokine cocktail was developed using commercially available cytokines (Peprotech, New Jersey) to facilitate simultaneous multi-lineage differentiation and self-renewal of freeze-thawed primary human bone marrow-derived CD34+ cells in SFEM II media (cells and media from StemCell Technologies, Vancouver). Cultures were carried out in ultra-low attachment 96-well plates (Corning, New York) with test article added on day 0 and cultured at 37°C, 85% relative humidity, and 5% CO2 for six days before interrogating drug impact via 17-parameter flow cytometry.
(§2) The flow cytometry panel used to define hematopoietic subsets was composed of CD34-PECy7, CD90-PECY5, CD38-AF488, CD371-PE, CD45Ra-BV421, CD14-BV605, CD42b-AF647, CD10-PEDazzle594, CD235a-PerCPCy5.5 (BioLegend, California), CD15-BUV395, CD41a-APCH7, CD71-BV786 (BD Biosciences, California), and DAPI for dead cell exclusion (ThermoFisher, California). In short, Day 6 cells were harvested, FcR-blocked (FcR binding inhibitor, ThermoFisher), surface-stained, then analyzed in a buffer containing TruCount Control Beads using a BD LSR Fortessa SORP fitted with a high-throughput sampler (BD Biosciences, California). Data was analyzed in Diva 6.0.2 and exported to CSV where after all cell data was transformed to cell per mL then normalized on a per-donor basis to untreated control wells to determine drug impact.
(§3) Donor material was collected and cultured as described above. The number of replicate donor samples per drug ranged from 2–7 and varied per drug (S1 Table). Drug treatment was added at time 0 and cells were maintained in culture for 6 days. Concentrations tested for each drug compound are contained in S1 Table. Concentrations were selected to span a range that is clinically useful. Following treatment, cell populations were measured using flow cytometry. We extracted cell counts from flow cytometry data, normalized to bead counts, and corrected for well volume.
(§4) Each well was normalized to the average of six vehicle control wells. For drugs that were tested across multiple runs of the assay, vehicle-normalized donor data were pooled, and we used the average of these pooled data for further modeling. Normalized data used as model inputs are included in S1 Table.
(§5) We implemented drug effects using an Emax model for the drug’s effect on each cell type. The 13 maximum effect parameters (EmaxT,C) are unitless and can vary between 0 and 2 and where a subscript, C, represents one of the previously described 13 cell types. We adapted a traditional Emax model using the equations below. We interpreted EmaxT values less than or equal to one as anti-proliferative, and EmaxT values greater than one as indicating a cell-killing mechanism in addition to anti-proliferation. The relationships for these effects are included in the model using the following equations. Eq 2 describes the drug anti-proliferative effect in the net proliferation rate for a given cell type. Eq 3 describes the cell-killing EmaxCK effect.
(§6) Towards the estimation of mechanistic parameters, we considered different formulations: (a) weighting the objective value to prioritize fitting dead cells and (b) using regularization methodology to encourage a parsimonious solution. We assessed the contributions of these formulations using mean-squared error and goodness of fit plots for drugs with known mechanisms. […] Further, we used L1 regularization to penalize parameters […] to help identify a parsimonious set of parameters to explain drug effects.

[2] = system: granulocyte progenitor (Gran-lin prog); test: MLTA, GranP: concentration-response and QSP model fit; conditions: Homo sapiens; for Emax: 144 h, parameter from QSP model fitting, read-out: Emax_drug_GranP; for EC50: QSP model parameter, sheet EC50_parameters, GranP, read-out: EC50GranP
Experimental: as §1, §2, §3, §4, §5, §6

[3] = system: late erythroid cells (Eryth II); test: MLTA, ErythII: concentration-response and QSP model fit; conditions: Homo sapiens; for Emax: 144 h, parameter from QSP model fitting, read-out: Emax_drug_ErythroidII; for EC50: QSP model parameter, sheet EC50_parameters, Erythroid II, read-out: EC50ErythroidII
Experimental: as §1, §2, §3, §4, §5, §6

[4] = system: neutrophils (neutrophil-lin); test: MLTA, Neut: concentration-response and QSP model fit; conditions: Homo sapiens, Neutrophil; for Emax: 144 h, parameter from QSP model fitting, read-out: Emax_drug_Neut; for EC50: QSP model parameter, sheet EC50_parameters, Neut
Experimental: as §1, §2, §3, §4, §5, §6

monocytes (monocyte-lin) = test: MLTA, Mono: concentration-response and QSP model fit; conditions: Homo sapiens, Monocyte; for Emax: 144 h, parameter from QSP model fitting, read-out: Emax_drug_Mono; for EC50: QSP model parameter, sheet EC50_parameters, Mono
Experimental: as §1, §2, §3, §4, §5, §6

MK cells (MK-lin) = test: MLTA, MK: concentration-response and QSP model fit; conditions: Homo sapiens; for Emax: 144 h, parameter from QSP model fitting, read-out: Emax_drug_MK; for EC50: QSP model parameter, sheet EC50_parameters, MK
Experimental: as §1, §2, §3, §4, §5, §6

[5] = system: lymphocyte progenitors (LymP); test: MLTA, LymP: concentration-response and QSP model fit; conditions: Homo sapiens, Lymphocyte; for Emax: 144 h, parameter from QSP model fitting, read-out: Emax_drug_LymP; for EC50: QSP model parameter, sheet EC50_parameters, LymP
Experimental: as §1, §2, §3, §4, §5, §6

B cells (B-lin) = test: MLTA, B-lin: concentration-response and QSP model fit; conditions: Homo sapiens, B-cell; for Emax: 144 h, parameter from QSP model fitting, read-out: Emax_drug_B; for EC50: QSP model parameter, sheet EC50_parameters, B
Experimental: as §1, §2, §3, §4, §5, §6

granulocytes (Gran-lin) = test: MLTA, Gran: concentration-response and QSP model fit; conditions: Homo sapiens; for Emax: 144 h, parameter from QSP model fitting, read-out: Emax_drug_Gran; for EC50: QSP model parameter, sheet EC50_parameters, Gran
Experimental: as §1, §2, §3, §4, §5, §6

[6] = system: multi-potent progenitors (MPPs); test: MLTA, MPPs: concentration-response and QSP model fit; conditions: Homo sapiens; for Emax: 144 h, parameter from QSP model fitting, read-out: Emax_drug_MPP; for EC50: QSP model parameter, sheet EC50_parameters, MPPs
Experimental: as §1, §2, §3, §4, §5, §6

[7] = system: early erythroid cells (Eryth I); test: MLTA, ErythI: concentration-response and QSP model fit; conditions: Homo sapiens; for Emax: 144 h, parameter from QSP model fitting, read-out: Emax_drug_ErythroidI; for EC50: QSP model parameter, sheet EC50_parameters, Erythroid I, read-out: EC50ErythroidI
Experimental: as §1, §2, §3, §4, §5, §6

[8] = system: monocyte progenitors (monocyte prog); test: MLTA, MonoP: concentration-response and QSP model fit; conditions: Homo sapiens, Monocyte; for Emax: 144 h, parameter from QSP model fitting, read-out: Emax_drug_MonoP; for EC50: QSP model parameter, sheet EC50_parameters, MonoP, read-out: EC50MonoP
Experimental: as §1, §2, §3, §4, §5, §6

[9] = system: hematopoietic stem cells (HSCs); test: Multi-lineage toxicity assay (MLTA), HSCs: concentration-response and QSP model fit; conditions: Homo sapiens, Hematopoietic stem cell; for Emax: 144 h, parameter from QSP model fitting, read-out: Emax_drug_HSC; for EC50: QSP model parameter, sheet EC50_parameters, HSCs
Experimental: as §1, §2, §3, §4, §5, §6

CC(C)C[C@H](NC(=O)[C@H](Cc1ccccc1)NC(=O)c1cnccn1)B(O)O [Bortezomib]
EC50 [1]: 40.6 nM
Emax [2]: 0.06%
EC50 [2]: 132 nM
Emax [3]: 19.1%
EC50 [3]: 56.5 nM
Emax [4]: 23.9%
EC50 [4]: 108 nM
Emax (monocytes (monocyte-lin)): 39%
EC50 (monocytes (monocyte-lin)): 83.6 nM
Emax (MK cells (MK-lin)): 35.3%
EC50 (MK cells (MK-lin)): 38.3 nM
Emax [5]: 0.16%
EC50 [5]: 112 nM
Emax (B cells (B-lin)): 89.8%
EC50 (B cells (B-lin)): 36.2 nM
Emax (granulocytes (Gran-lin)): 184%
EC50 (granulocytes (Gran-lin)): 68.6 nM
Emax [6]: 0.3%
EC50 [6]: 33.1 nM
Emax [7]: 0.16%
EC50 [7]: 60.8 nM
Emax [8]: 0.17%
EC50 [8]: 70.9 nM
Emax [9]: 134%
EC50 [9]: 105 nM

Cc1sc2c(c1C)C(c1ccc(Cl)cc1)=N[C@@H](CC(=O)Nc1ccc(O)cc1)c1nnc(C)n1-2 [OTX015]
EC50 [1]: 851 nM
Emax [2]: 0.16%
EC50 [2]: 176 nM
Emax [3]: 12%
EC50 [3]: 173 nM
Emax [4]: 16.7%
EC50 [4]: 88.3 nM
Emax (monocytes (monocyte-lin)): 37.5%
EC50 (monocytes (monocyte-lin)): 264 nM
Emax (MK cells (MK-lin)): 26.9%
EC50 (MK cells (MK-lin)): 4130 nM
Emax [5]: 115%
EC50 [5]: 241 nM
Emax (B cells (B-lin)): 76.8%
EC50 (B cells (B-lin)): 425 nM
Emax (granulocytes (Gran-lin)): 126%
EC50 (granulocytes (Gran-lin)): 364 nM
Emax [6]: 0.05%
EC50 [6]: 427 nM
Emax [7]: 195%
EC50 [7]: 1180 nM
Emax [8]: 0.18%
EC50 [8]: 114 nM
Emax [9]: 40.1%
EC50 [9]: 241 nM
